Read-outs that look alike come from different tables or passages of the source.
What was measured:
[1] = Phase 1 SRD/multiple-rising dose (MRD, Part 2) plasma PK in healthy subjects; format: in vivo, human; settings: for Vd/F: read-out: Vz/F
Procedure: The study was designed to assess the safety, tolerability, PK, and PD of COMPOUND A. A total of 88 subjects were enrolled in 6 SRD and 5 SRD/MRD cohorts (n=8 per cohort). The study was composed of 2 parts.
In Part 2 of the study (SRD/MRD cohorts), a single oral tablet dose of COMPOUND A (0.3, 1, 3, 6, or 9 mg) or matching placebo was administered on Day 1 followed by safety, tolerability, PK, and PD assessments. Study drug (at the same dose level) was then administered once daily (QD) for 13 days, on […]. Each cohort of 8 subjects (6 active: 2 placebo) were administered study drug sequentially to ensure adequate safety and tolerability before administering the next dose level. Neither sentinel nor staggered dosing was used for the SRD/MRD cohorts. Subjects were confined in the study unit for 21 days, from Check-in on Day −1 until 72 hours after the last dose of study drug.
For all cohorts in Parts 1 and 2, serial PK blood samples were collected pre- and post-dose on Day 1 to measure plasma concentrations of COMPOUND A and its metabolites. For all SRD/MRD cohorts in Part 2, urine samples were collected pre- and post-dose on Day 1 and post-dose on Day 18 to measure concentrations of COMPOUND A and its metabolites.
For Part 1 of the study, all 36 subjects who received COMPOUND A were included in the PK set. For Part 2 of the study, all 30 subjects who received COMPOUND A were included in the PK set.
Referring now to FIG. 3, mean plasma concentration-time profiles (linear and semilog scales) of COMPOUND A were determined on Day 18 following oral administration of COMPOUND A QD for 13 days.

[2] = 13-week NHP GLP toxicity study: toxicokinetics; format: in vivo, Monkey (Macaca fascicularis); settings: cynomolgus monkey, plasma, oral; range across all TK sampling days (1st, 29th, 90th dosing)
Procedure: Blood samples (a target of 0.5 mL each, Na-heparin tubes) were collected from all animals at the following timepoints: • Phase 1: at 4 hours after dosing. • Phase 2: Plasma concentrations of COMPOUND A and its metabolites were determined for all dose groups after the 1st, the 29th dosing and the 90th dosing. Blood collection occurred in each animal in all groups before dosing (at the 29th and 90th dose only) and 1, 2, 4, 8, and 24 hours after dosing. Blood samples were collected into Na-heparin tubes via the implanted catheter or from the jugular, cephalic or femoral vein by venipuncture; tubes were kept on wet ice pending centrifugation. The blood samples were centrifuged at 5400×g for 5 minutes under cooling conditions (set to 4° C.) to obtain the plasma. The plasma was divided into duplicate samples (at least 100 μL each) and was kept on dry ice and stored in a freezer set to −20° C. until shipment. Back-up samples (set 2 of 2) were stored separately from set 1 of 2.
Non-compartmental toxicokinetic analysis was performed by the subcontractor on the plasma concentration data for COMPOUND A, and its metabolites using validated WinNonlin software. The TK parameters (tmax, Cmax, t1/2, MRT24, MRTinf, AUC24 and AUCinf) were calculated for all animals except for the control animals.

[3] = test system: MEPs; test: Nonclinical MEP amplitude in rats; format: in vivo; settings: nonclinical data
[4] = both sexes, human, plasma, oral, 0.3 mg QD cohort, Study Day 1, mean
[5] = both sexes, human, plasma, oral, 1 mg QD cohort, Study Day 1, mean
[6] = both sexes, human, plasma, oral, 3 mg QD cohort, Study Day 1, mean
[7] = both sexes, human, plasma, oral, 6 mg QD cohort, Study Day 1, mean
[8] = both sexes, human, plasma, oral, 9 mg QD cohort, Study Day 1, mean

CC1=CN2CCS(=O)(=O)N=C2C(c2ccc(OC3CCCCC3)cc2)=N1 [COMPOUND A, 9-[4-(Cyclohexyloxy)phenyl]-7-methyl-3,4-dihydropyrazino[2,1-c][1,2,4]thiadiazine 2,2-dioxide]
Tmax ([1]; both sexes, human, plasma, oral, 3 mg, 3 mg QD, Study Day 18, median, read-out: tmax): 4 h | AUC ([1]; both sexes, human, plasma, oral, 6 mg, 6 mg QD cohort, Study Day 1, mean, read-out: AUC24): 767 ng·h/mL | Cmax ([1]; both sexes, human, plasma, oral, 6 mg, 6 mg QD cohort, Study Day 1, mean, read-out: Cmax): 42 ng/mL | Tmax ([1]; both sexes, human, plasma, oral, 6 mg, 6 mg QD cohort, Study Day 1, median, read-out: tmax): 5 h | AUC ([1]; both sexes, human, plasma, oral, 6 mg, 6 mg QD, Study Day 6, mean, n = 5, read-out: AUC24): 784 ng·h/mL | Cmax ([1]; both sexes, human, plasma, oral, 6 mg, 6 mg QD, Study Day 6, mean, read-out: Cmax): 50.2 ng/mL | Tmax ([1]; both sexes, human, plasma, oral, 6 mg, 6 mg QD, Study Day 6, median, read-out: tmax): 5 h | AUC ([1]; both sexes, human, plasma, oral, 6 mg, 6 mg QD, Study Day 18, mean, n = 5, read-out: AUCτ): 2930 ng·h/mL | Cmax ([1]; both sexes, human, plasma, oral, 6 mg, 6 mg QD, Study Day 18, mean, n = 5, read-out: Cmax, ss): 148 ng/mL | Tmax ([1]; both sexes, human, plasma, oral, 6 mg, 6 mg QD, Study Day 18, median, n = 5, read-out: tmax): 3.05 h | AUC ([1]; both sexes, human, plasma, oral, 9 mg, 9 mg QD cohort, Study Day 1, mean, read-out: AUC24): 1410 ng·h/mL | Cmax ([1]; both sexes, human, plasma, oral, 9 mg, 9 mg QD cohort, Study Day 1, mean, read-out: Cmax): 78.4 ng/mL | Tmax ([1]; both sexes, human, plasma, oral, 9 mg, 9 mg QD cohort, Study Day 1, median, read-out: tmax): 4.51 h | AUC ([1]; both sexes, human, plasma, oral, 9 mg, 9 mg QD, Study Day 6, mean, read-out: AUC24): 1570 ng·h/mL | Cmax ([1]; both sexes, human, plasma, oral, 9 mg, 9 mg QD, Study Day 6, mean, read-out: Cmax): 82 ng/mL | Tmax ([1]; both sexes, human, plasma, oral, 9 mg, 9 mg QD, Study Day 6, median, read-out: tmax): 4 h | AUC ([1]; both sexes, human, plasma, oral, 9 mg, 9 mg QD, Study Day 18, mean, read-out: AUCτ): 4600 ng·h/mL | Cmax ([1]; both sexes, human, plasma, oral, 9 mg, 9 mg QD, Study Day 18, mean, read-out: Cmax, ss): 243 ng/mL | Tmax ([1]; both sexes, human, plasma, oral, 9 mg, 9 mg QD, Study Day 18, median, read-out: tmax): 3 h | AUC ([1]; both sexes, human, plasma, oral, Day 18, range over the 0.3 to 9 mg QD dose range, read-out: mean AUCτ): 151 to 4600 ng·h/mL | concentration at 18 day ([1]; both sexes, human, plasma, oral, Day 18, range over the 0.3 to 9 mg QD dose range, read-out: mean Cav,ss): 6.27 to 192 ng/mL | Cmax ([1]; both sexes, human, plasma, oral, Day 18, range over the 0.3 to 9 mg QD dose range, read-out: mean plasma Cmax,ss): 7.86 to 243 ng/mL | AUC(0-inf) [1, 4]: 133 ng·h/mL | AUC(0-t) [1, 4]: 118 ng·h/mL | Vd/F [1, 4]: 121 L | AUC(0-inf) [1, 5]: 470 ng·h/mL | AUC(0-t) [1, 5]: 394 ng·h/mL | Vd/F [1, 5]: 133 L | AUC(0-inf) [1, 6]: 1870 ng·h/mL | AUC(0-t) [1, 6]: 1470 ng·h/mL | Vd/F [1, 6]: 126 L | AUC(0-inf) [1, 7]: 2330 ng·h/mL | AUC(0-t) [1, 7]: 1960 ng·h/mL | Vd/F [1, 7]: 145 L | AUC(0-inf) [1, 8]: 5760 ng·h/mL | AUC(0-t) [1, 8]: 4430 ng·h/mL | Vd/F [1, 8]: 119 L | Tmax ([1]; both sexes, human, plasma, po, 9 mg, oral QD 0.3, 1, 3, 6, 9 mg, range over the dose range, read-out: median tmax): 2.5 to 4 h | attainment of steady-state ([1]; oral QD 0.3-9 mg from Day 6): appeared to reach steady-state on Day 18 | Tmax [2]: 2 to 15 h | amplitude of MEPs [3]: increases the amplitude of MEPs in rats

Source: patent US20230338391A1, “TREATMENT FOR DEPRESSION” (TAKEDA PHARMACEUTICAL COMPANY LIMITED, priority 2020, published 2023)
